Assay results published in patent US12377067B2, “Methods of treating PAH with combinations of ralinepag and other agents” (Arena Pharmaceuticals, Inc., priority 2016, dated 2025).

Tested on: human PASMCs from PAH patients
Experiment: Cyclic AMP assay
Type: cell-based
Experimental: Human PASMCs from PAH patients were grown to 70-80% confluence in 12 well plates in DMEM/F12 containing 9% foetal bovine serum (FBS), penicillin (50 U/ml)/streptomycin (50 ag/ml). To assess the time-course of cAMP elevation, cells were stimulated with 100 nM ralinepag for varying times (0.5, 1, 2, 4, 8, 24, 48 hours). This dose of ralinepag was chosen on the basis that it was close to the EC50 for cAMP generation in preliminary experiments. In other experiments, the IP receptor agonist was added for a specified time (60 minutes) over a full concentration range (0.1-10,000 nM) in the absence and presence of […] of the IP receptor antagonist, RO-1138452. The antagonist is added 30 minutes beforehand and remained throughout.
To extract cyclic AMP, the medium was aspirated and PASMCs cells incubated in 0.1 M HCl for 20 minutes on ice followed by centrifugation at 1000 g for 10 minutes at 4° C. The protein concentration in the supernatant was determined using a […] protein assay (BCA, Novagen, EmD Chemicals, CA, USA). Intracellular cyclic AMP was measured using a competitive enzyme immunoassay 96 well plate kit (ADI-900-163, Enzo Life Sciences, Exeter, UK) and the assay performed according to the manufacturer's instructions. Each sample was run in duplicate and data expressed as pmol of cAMP per mg of total protein for each individual sample. Basal levels were subtracted from each agonist concentration data point. Given the large variation (˜15-fold) in cAMP generation from different patient samples, data was also normalized to the peak cyclic AMP response (assigned 100%) in each cell isolate.

EC50 (Homo sapiens, PASMC, preliminary experiments, read-out: EC50 for cAMP generation): ~100 nM
Structure (SMILES): O=C(O)COC[C@H]1CC[C@H](COC(=O)N(c2ccccc2)c2ccc(Cl)cc2)CC1 [ralinepag, 2-(((1r,4r)-4-(((4-chlorophenyl)(phenyl)carbamoyloxy)methyl)cyclohexyl)methoxy)acetic acid]
maximal effect compared with treprostinil (cyclic AMP assay): weaker maximal effects
fold more cyclic AMP than MRE-269 (ralinepag vs MRE-269): 2 fold
